Measured values reported in the NIST ThermoML archive (doi:10.1021/je0500330).
Numbers after ± are expanded uncertainties.

How the values were obtained:
[1] = Liquid; for speed of sound / mass density: 298.15 K, 101.33 kPa; for speed of sound: Sing-around technique in a fixed-path interferometer; for mass density: Vibrating tube method
[2] = refractive index (Na D-line) (dimensionless); settings: 298.15 K; 101.33 kPa; Liquid; Standard Abbe refractometry
[3] = xn = mol fraction of the nth substance listed; settings: 298.15 K, 101.3 kPa, Liquid
[4] = refractive index (Na D-line) (dimensionless); xn = mol fraction of the nth substance listed; settings: 298.15 K, 101.3 kPa, Liquid

CCO [ethanol]
Settings | mass density [kg/m3] | refractive index | speed of sound [m/s]
[1] | 785.36 ± 0.23 | – | 1143 ± 2
[2] | – | 1.35916 ± 0.00032 | –

Settings | vapor or sublimation pressure [kPa]
[1], 351.5 K | 101.3 ± 3

CCC(C)CO (centres undefined) [2-methyl-1-butanol]
Settings | mass density [kg/m3] | refractive index | speed of sound [m/s]
[1] | 814.87 ± 0.2 | – | 1253 ± 2
[2] | – | 1.40872 ± 0.14 | –

[1]
Settings | vapor or sublimation pressure [kPa]
401.58 K | 101.3 ± 3
401.86 K | 101.3 ± 3

CCC(C)CO (centres undefined) [2-methyl-1-butanol] + CO
Settings | mass density, [3] [kg/m3] | refractive index, [4] | speed of sound, [3] [m/s]
x2 = 0.0485 | 814.3 ± 0.45 | 1.40702 ± 0.00063 | 1250.7 ± 2.2
x2 = 0.1016 | 813.63 ± 0.44 | 1.40511 ± 0.00063 | 1246.7 ± 2.2
x2 = 0.1543 | 812.9 ± 0.44 | 1.40324 ± 0.00063 | 1242.6 ± 2.2
x2 = 0.1987 | 812.22 ± 0.44 | 1.40162 ± 0.00063 | 1238.7 ± 2.2
x2 = 0.2528 | 811.35 ± 0.44 | 1.39907 ± 0.00063 | 1233.9 ± 2.2
x2 = 0.3017 | 810.5 ± 0.44 | 1.39712 ± 0.00063 | 1229 ± 2.2
x2 = 0.3496 | 809.49 ± 0.45 | 1.39461 ± 0.00063 | 1223 ± 2.2
x2 = 0.4005 | 808.36 ± 0.45 | 1.39181 ± 0.00063 | 1217 ± 2.2
x2 = 0.4506 | 807.25 ± 0.45 | 1.38875 ± 0.00064 | 1210.7 ± 2.2
x2 = 0.4987 | 806.12 ± 0.45 | 1.38569 ± 0.00064 | 1204.2 ± 2.2
x2 = 0.5502 | 804.84 ± 0.45 | 1.38222 ± 0.00064 | 1197.2 ± 2.2
x2 = 0.6003 | 803.4 ± 0.45 | 1.37832 ± 0.00064 | 1188.8 ± 2.1
x2 = 0.6487 | 801.91 ± 0.45 | 1.37416 ± 0.00065 | 1180.7 ± 2.1
x2 = 0.7003 | 800.27 ± 0.45 | 1.36946 ± 0.00065 | 1171.5 ± 2.1
x2 = 0.7504 | 798.44 ± 0.46 | 1.3642 ± 0.00066 | 1162.7 ± 2.1
x2 = 0.8002 | 796.5 ± 0.46 | 1.35846 ± 0.00067 | 1151.4 ± 2.1
x2 = 0.8503 | 794.35 ± 0.46 | 1.35214 ± 0.00068 | 1142.2 ± 2.1
x2 = 0.9004 | 791.96 ± 0.47 | 1.34482 ± 0.0007 | 1131.5 ± 2.1
x2 = 0.9503 | 789.39 ± 0.47 | 1.33618 ± 0.00071 | 1120.5 ± 2.1

CO [methanol]
Settings | mass density [kg/m3] | refractive index | speed of sound [m/s]
[1] | 787.14 ± 0.14 | – | 1102 ± 2
[2] | – | 1.32667 ± 0.00033 | –

Settings | vapor or sublimation pressure [kPa]
[1], 337.65 K | 101.3 ± 3

CCC(C)CO (centres undefined) [2-methyl-1-butanol] + CCO
Settings | mass density, [3] [kg/m3] | refractive index, [4] | speed of sound, [3] [m/s]
x2 = 0.0486 | 814.11 ± 0.45 | 1.40734 ± 0.00063 | 1247.7 ± 2.2
x2 = 0.1013 | 813.23 ± 0.45 | 1.40583 ± 0.00063 | 1245 ± 2.2
x2 = 0.1523 | 812.31 ± 0.45 | 1.40424 ± 0.00063 | 1241.4 ± 2.2
x2 = 0.1987 | 811.39 ± 0.45 | 1.40277 ± 0.00063 | 1237.6 ± 2.2
x2 = 0.2503 | 810.38 ± 0.46 | 1.40112 ± 0.00063 | 1233.6 ± 2.2
x2 = 0.3004 | 809.33 ± 0.46 | 1.39926 ± 0.00063 | 1229.6 ± 2.2
x2 = 0.3486 | 808.22 ± 0.46 | 1.39756 ± 0.00063 | 1225.3 ± 2.2
x2 = 0.4003 | 807.02 ± 0.46 | 1.39549 ± 0.00063 | 1221 ± 2.2
x2 = 0.4502 | 805.74 ± 0.47 | 1.39341 ± 0.00063 | 1215.9 ± 2.2
x2 = 0.5004 | 804.41 ± 0.47 | 1.3912 ± 0.00063 | 1210.5 ± 2.2
x2 = 0.5502 | 803.01 ± 0.47 | 1.38899 ± 0.00063 | 1205.4 ± 2.2
x2 = 0.6004 | 801.43 ± 0.48 | 1.38636 ± 0.00064 | 1199.4 ± 2.2
x2 = 0.6503 | 799.81 ± 0.48 | 1.38373 ± 0.00064 | 1193.1 ± 2.2
x2 = 0.7 | 798.1 ± 0.48 | 1.38109 ± 0.00064 | 1186.9 ± 2.2
x2 = 0.8009 | 794.32 ± 0.49 | 1.37475 ± 0.00064 | 1173 ± 2.2
x2 = 0.8503 | 792.34 ± 0.5 | 1.37134 ± 0.00064 | 1166 ± 2.2
x2 = 0.9002 | 790.13 ± 0.5 | 1.36758 ± 0.00065 | 1158.2 ± 2.1
x2 = 0.9503 | 787.77 ± 0.51 | 1.36358 ± 0.00065 | 1150.2 ± 2.1
